Paper PMC5218480 (PLoS ONE, 2017)

Tested on: MV-4-11 cells
Assay: Gene expression microarray analysis (Affymetrix PrimeView) and GSEA
Format: cell-based, human
Parameters: RFU PODN (11730768_x_at) / Fold change /veh PODN (11730768_x_at) / RFU LINC00158 (11744669_a_at) / Fold change /veh LINC00158 (11744669_a_at) / RFU DUSP10 (11751237_a_at) / Fold change /veh DUSP10 (11751237_a_at) / RFU ID3 (11757404_x_at) / Fold change /veh ID3 (11757404_x_at) / RFU PLEKHG5 (11737974_s_at) / Fold change /veh PLEKHG5 (11737974_s_at) / RFU LRRC4B (11730491_at) / Fold change /veh LRRC4B (11730491_at) / RFU GIMAP4 (11747438_a_at) / Fold change /veh GIMAP4 (11747438_a_at) / RFU KRT8 (11758183_x_at) / Fold change /veh KRT8 (11758183_x_at) / RFU CNN1 (11734310_a_at) / Fold change /veh CNN1 (11734310_a_at) / RFU VPS37D (11726825_at) / Fold change /veh VPS37D (11726825_at) / RFU C10orf10 (11716522_x_at) / Fold change /veh C10orf10 (11716522_x_at) / RFU KIR2DL2 /// KIR2DL4 /// KIR2DL5A /// KIR2DL5B /// KIR2DS1 /// KIR2DS2 /// KIR2DS3 /// KIR2DS4 /// KIR3DL3 /// KIR3DL3 /// KIR3DS1 (11738374_at) / Fold change /veh KIR2DL2 /// KIR2DL4 /// KIR2DL5A /// KIR2DL5B /// KIR2DS1 /// KIR2DS2 /// KIR2DS3 /// KIR2DS4 /// KIR3DL3 /// KIR3DL3 /// KIR3DS1 (11738374_at) / RFU C1QL1 (11718748_at) / Fold change /veh C1QL1 (11718748_at) / RFU TMPRSS4 (11747572_a_at) / Fold change /veh TMPRSS4 (11747572_a_at) / RFU HAMP (11756126_x_at) / Fold change /veh HAMP (11756126_x_at) / RFU RNFT2 (11725882_a_at) / Fold change /veh RNFT2 (11725882_a_at) / RFU NR4A2 (11747474_a_at) / Fold change /veh NR4A2 (11747474_a_at) / RFU ABCC12 (11746883_a_at) / Fold change /veh ABCC12 (11746883_a_at) / RFU TMEM136 (11760407_x_at) / Fold change /veh TMEM136 (11760407_x_at) / RFU CLDN22 /// WWC2 (11732394_at) / Fold change /veh CLDN22 /// WWC2 (11732394_at) / RFU HLA-DPB1 (11760878_x_at) / Fold change /veh HLA-DPB1 (11760878_x_at) / RFU SPINT1 (11716480_a_at) / Fold change /veh SPINT1 (11716480_a_at) / RFU GAP43 (11754022_s_at) / Fold change /veh GAP43 (11754022_s_at) / RFU A4GNT (11735810_at) / Fold change /veh A4GNT (11735810_at) / RFU PRB3 (11715151_x_at) / Fold change /veh PRB3 (11715151_x_at) / RFU TUBB4B (11761932_at) / Fold change /veh TUBB4B (11761932_at) / RFU CAPN14 (11732068_a_at) / Fold change /veh CAPN14 (11732068_a_at) / RFU TMCC2 (11721928_a_at) / Fold change /veh TMCC2 (11721928_a_at) / RFU IRGQ (11745062_a_at) / Fold change /veh IRGQ (11745062_a_at) / RFU FAM174B (11720279_a_at) / Fold change /veh FAM174B (11720279_a_at) / RFU TMPRSS4 (11748680_a_at) / Fold change /veh TMPRSS4 (11748680_a_at) / RFU FAM212B (11763350_a_at) / Fold change /veh FAM212B (11763350_a_at) / RFU PLEKHG5 (11743358_a_at) / Fold change /veh PLEKHG5 (11743358_a_at) / RFU ZSCAN30 (11745921_a_at) / Fold change /veh ZSCAN30 (11745921_a_at) / RFU CMKLR1 (11741424_a_at) / Fold change /veh CMKLR1 (11741424_a_at) / RFU LOC101060620 /// MAPK8IP1 (11723275_at) / Fold change /veh LOC101060620 /// MAPK8IP1 (11723275_at) / RFU SPTSSB (11747773_x_at) / Fold change /veh SPTSSB (11747773_x_at) / RFU PRSS12 (11739890_at) / Fold change /veh PRSS12 (11739890_at) / RFU BIN1 (11741810_x_at) / Fold change /veh BIN1 (11741810_x_at) / RFU WNT11 (11732464_a_at) / Fold change /veh WNT11 (11732464_a_at) / RFU C10orf10 (11716521_a_at) / Fold change /veh C10orf10 (11716521_a_at) / RFU C5orf56 (11738089_at) / Fold change /veh C5orf56 (11738089_at) / RFU CYB561 (11721691_x_at) / Fold change /veh CYB561 (11721691_x_at) / RFU ANKRD19P (11752326_a_at) / Fold change /veh ANKRD19P (11752326_a_at) / RFU OR2T12 /// OR2T33 /// OR2T8 (11738714_s_at) / Fold change /veh OR2T12 /// OR2T33 /// OR2T8 (11738714_s_at) / RFU VCAN (11748164_a_at) / Fold change /veh VCAN (11748164_a_at) / RFU JSRP1 (11732532_at) / Fold change /veh JSRP1 (11732532_at) / RFU KRTAP10-11 (11738290_x_at) / Fold change /veh KRTAP10-11 (11738290_x_at) / RFU MYO3A (11730013_a_at) / Fold change /veh MYO3A (11730013_a_at) / RFU EBF3 (11725865_a_at) / Fold change /veh EBF3 (11725865_a_at) / RFU CAMK2N1 (11719241_x_at) / Fold change /veh CAMK2N1 (11719241_x_at) / RFU C5orf56 (11738088_a_at) / Fold change /veh C5orf56 (11738088_a_at) / RFU OLFML3 (11715873_a_at) / Fold change /veh OLFML3 (11715873_a_at) / RFU LOC100653217 /// NTM (11731650_a_at) / Fold change /veh LOC100653217 /// NTM (11731650_a_at) / RFU MAPK11 (11762145_a_at) / Fold change /veh MAPK11 (11762145_a_at) / RFU FIZ1 (11724087_x_at) / Fold change /veh FIZ1 (11724087_x_at) / RFU OASL (11726364_x_at) / Fold change /veh OASL (11726364_x_at) / RFU SOX15 (11748057_x_at) / Fold change /veh SOX15 (11748057_x_at) / RFU CD79A (11719716_a_at) / Fold change /veh CD79A (11719716_a_at) / RFU HIST1H1D (11736915_at) / Fold change /veh HIST1H1D (11736915_at) / RFU CASKIN2 (11723855_a_at) / Fold change /veh CASKIN2 (11723855_a_at) / RFU LOC730098 (11760151_x_at) / Fold change /veh LOC730098 (11760151_x_at) / RFU OR4N2 (11742367_at) / Fold change /veh OR4N2 (11742367_at) / RFU PRRT2 (11749266_a_at) / Fold change /veh PRRT2 (11749266_a_at) / RFU SNX32 (11753110_a_at) / Fold change /veh SNX32 (11753110_a_at) / RFU CDHR5 (11726645_a_at) / Fold change /veh CDHR5 (11726645_a_at) / RFU RCAN1 (11760418_a_at) / Fold change /veh RCAN1 (11760418_a_at) / RFU FAM167A (11723789_a_at) / Fold change /veh FAM167A (11723789_a_at) / RFU FAM26E (11764081_at) / Fold change /veh FAM26E (11764081_at) / RFU ISYNA1 (11749810_s_at) / Fold change /veh ISYNA1 (11749810_s_at) / RFU ACY1 (11761880_at) / Fold change /veh ACY1 (11761880_at) / RFU 11764098_at / Fold change /veh 11764098_at / RFU SAMD14 (11745864_x_at) / Fold change /veh SAMD14 (11745864_x_at) / RFU NPB (11741838_a_at) / Fold change /veh NPB (11741838_a_at) / RFU TMPRSS6 (11731388_a_at) / Fold change /veh TMPRSS6 (11731388_a_at) / RFU KRTAP10-2 (11738614_at) / Fold change /veh KRTAP10-2 (11738614_at) / RFU ARHGAP8 /// PRR5-ARHGAP8 (11727945_x_at) / Fold change /veh ARHGAP8 /// PRR5-ARHGAP8 (11727945_x_at) / RFU KRTAP5-7 /// NADSYN1 (11734609_at) / Fold change /veh KRTAP5-7 /// NADSYN1 (11734609_at) / RFU RASL12 (11751679_a_at) / Fold change /veh RASL12 (11751679_a_at) / RFU CDKN2B (11736163_a_at) / Fold change /veh CDKN2B (11736163_a_at) / RFU PRF1 (11729649_at) / Fold change /veh PRF1 (11729649_at) / RFU, ZNF638 /// ZNF638-IT1 / Fold change vs veh, ZNF638 /// ZNF638-IT1 / RFU, PANK3 / Fold change vs veh, PANK3 / RFU, SH3YL1 / Fold change vs veh, SH3YL1 / RFU, ZEB2 / Fold change vs veh, ZEB2 / RFU, NRIP1 / Fold change vs veh, NRIP1 / RFU, PTTG1IP / Fold change vs veh, PTTG1IP / RFU, CAPN2 / Fold change vs veh, CAPN2 / RFU, MED14 / Fold change vs veh, MED14 / RFU, SNORA58 / Fold change vs veh, SNORA58 / RFU, C1orf63 / Fold change vs veh, C1orf63 / RFU, LRRFIP1 / Fold change vs veh, LRRFIP1 / RFU, NDUFAF7 / Fold change vs veh, NDUFAF7 / RFU, SLC12A2 / Fold change vs veh, SLC12A2 / RFU, IBTK / Fold change vs veh, IBTK / RFU, ESF1 / Fold change vs veh, ESF1 / Fold change vs veh, TMEM50B / RFU, TAOK1 / Fold change vs veh, TAOK1 / RFU, ACBD3 / Fold change vs veh, ACBD3 / RFU, TMA16 / Fold change vs veh, TMA16 / RFU, RWDD3 / Fold change vs veh, RWDD3 / RFU, BCAT1 / Fold change vs veh, BCAT1 / RFU, EDEM3 / Fold change vs veh, EDEM3 / RFU, TMEM33 / Fold change vs veh, TMEM33 / RFU, WDR75 / Fold change vs veh, WDR75 / RFU, AHCTF1 / Fold change vs veh, AHCTF1 / RFU, TFRC / Fold change vs veh, TFRC / RFU, ZDHHC17 / Fold change vs veh, ZDHHC17 / RFU, NOM1 / Fold change vs veh, NOM1 / RFU, ARL8B / Fold change vs veh, ARL8B / RFU, ZBTB11 / Fold change vs veh, ZBTB11 / RFU, TAMM41 / Fold change vs veh, TAMM41 / RFU, KIAA1704 /// LOC100996395 / Fold change vs veh, KIAA1704 /// LOC100996395 / RFU, ING1 / Fold change vs veh, ING1 / RFU, TRMT61B / Fold change vs veh, TRMT61B / RFU, FUBP3 / Fold change vs veh, FUBP3 / RFU, TP53 / Fold change vs veh, TP53 / RFU, TNKS2 / Fold change vs veh, TNKS2 / RFU, ZFP14 / Fold change vs veh, ZFP14 / RFU, ACTR2 / Fold change vs veh, ACTR2 / RFU, PPP3R1 / Fold change vs veh, PPP3R1 / RFU, PIK3R1 / Fold change vs veh, PIK3R1 / RFU, HNRNPA1 / Fold change vs veh, HNRNPA1 / RFU, RNF170 / Fold change vs veh, RNF170 / RFU, ZNF28 / Fold change vs veh, ZNF28 / RFU, RNGTT / Fold change vs veh, RNGTT / RFU, OGT / Fold change vs veh, OGT / RFU, BRD1 / Fold change vs veh, BRD1 / RFU, MARS / Fold change vs veh, MARS / RFU, ZNF655 / Fold change vs veh, ZNF655 / RFU, FAHD1 / Fold change vs veh, FAHD1 / RFU, BDP1 / Fold change vs veh, BDP1 / RFU, LRRCC1 / Fold change vs veh, LRRCC1 / RFU, ARID1A / Fold change vs veh, ARID1A / RFU, ZNF146 / Fold change vs veh, ZNF146 / RFU, ZNF330 / Fold change vs veh, ZNF330 / RFU, GPN3 / Fold change vs veh, GPN3 / RFU, C9orf123 / Fold change vs veh, C9orf123 / RFU, N4BP2L2 / Fold change vs veh, N4BP2L2 / RFU, ARFIP1 / Fold change vs veh, ARFIP1 / RFU, FAM179B / Fold change vs veh, FAM179B / RFU, BCL10 / Fold change vs veh, BCL10 / RFU, UHRF1BP1L / Fold change vs veh, UHRF1BP1L / RFU, BET1 / Fold change vs veh, BET1 / RFU, CNOT2 / Fold change vs veh, CNOT2 / RFU, ZNF268 / Fold change vs veh, ZNF268 / Fold change vs veh, ZNF507 / RFU, DGCR2 / Fold change vs veh, DGCR2 / RFU, WDSUB1 / Fold change vs veh, WDSUB1 / Fold change vs veh, HSP90B1 /// MIR3652 / RFU, ADSS / Fold change vs veh, ADSS / RFU, GK / Fold change vs veh, GK / RFU, ZNF148 / Fold change vs veh, ZNF148 / RFU, TAF9 / Fold change vs veh, TAF9 / RFU, SLC1A5 / Fold change vs veh, SLC1A5 / RFU, SLMO2 / Fold change vs veh, SLMO2 / RFU, ABCC4 / Fold change vs veh, ABCC4 / RFU, LOC101060439 /// RAP1B / Fold change vs veh, LOC101060439 /// RAP1B / RFU, RFX7 / Fold change vs veh, RFX7 / RFU, GTPBP10 / Fold change vs veh, GTPBP10 / RFU, CNEP1R1 / Fold change vs veh, CNEP1R1 / RFU, BIVM-ERCC5 /// ERCC5 / Fold change vs veh, BIVM-ERCC5 /// ERCC5 / RFU, ILF3 / Fold change vs veh, ILF3 / RFU 11762660_at / Fold change /veh 11762660_at / RFU VCAN (11757783_s_at) / Fold change /veh VCAN (11757783_s_at) / RFU DDX43 (11728927_at) / Fold change /veh DDX43 (11728927_at) / RFU KRT8 (11758188_x_at) / Fold change /veh KRT8 (11758188_x_at) / RFU NKD1 (11759106_at) / Fold change /veh NKD1 (11759106_at) / RFU SRD5A1 (11742802_a_at) / Fold change /veh SRD5A1 (11742802_a_at) / RFU TPSAB1 /// TPSB2 (11721975_s_at) / Fold change /veh TPSAB1 /// TPSB2 (11721975_s_at) / RFU GSTM3 (11746129_a_at) / Fold change /veh GSTM3 (11746129_a_at) / RFU IL23R (11737362_x_at) / Fold change /veh IL23R (11737362_x_at) / RFU TMEM51 (11727254_a_at) / Fold change /veh TMEM51 (11727254_a_at) / RFU PIWIL2 (11732686_x_at) / Fold change /veh PIWIL2 (11732686_x_at) / RFU ORM1 (11744905_x_at) / Fold change /veh ORM1 (11744905_x_at) / RFU CCDC152 (11743942_at) / Fold change /veh CCDC152 (11743942_at) / RFU ECM1 (11717891_a_at) / Fold change /veh ECM1 (11717891_a_at) / RFU IL23R (11748794_a_at) / Fold change /veh IL23R (11748794_a_at) / RFU TNFAIP8L3 (11732012_x_at) / Fold change /veh TNFAIP8L3 (11732012_x_at) / RFU MBOAT4 (11741988_at) / Fold change /veh MBOAT4 (11741988_at) / RFU 11764193_at / Fold change /veh 11764193_at / RFU TMEM53 (11763286_at) / Fold change /veh TMEM53 (11763286_at) / RFU MAGEB2 (11727129_at) / Fold change /veh MAGEB2 (11727129_at) / RFU TMEM200A (11744735_a_at) / Fold change /veh TMEM200A (11744735_a_at) / RFU CCDC152 (11751479_a_at) / Fold change /veh CCDC152 (11751479_a_at) / RFU FAM211A (11726209_a_at) / Fold change /veh FAM211A (11726209_a_at) / RFU RGS16 (11746705_a_at) / Fold change /veh RGS16 (11746705_a_at) / RFU VCAN (11755009_s_at) / Fold change /veh VCAN (11755009_s_at) / RFU RHOB (11743442_s_at) / Fold change /veh RHOB (11743442_s_at) / RFU RGS16 (11720943_a_at) / Fold change /veh RGS16 (11720943_a_at) / RFU RGS16 (11720944_at) / Fold change /veh RGS16 (11720944_at) / RFU, VPS4B / Fold change vs veh, VPS4B / RFU, CREB1 / Fold change vs veh, CREB1 / RFU, DNAJC13 / Fold change vs veh, DNAJC13 / RFU, GNAQ / Fold change vs veh, GNAQ / RFU, CDK5R1 / Fold change vs veh, CDK5R1 / RFU, ZRANB3 / Fold change vs veh, ZRANB3 / RFU, CUL4A / Fold change vs veh, CUL4A / RFU, CCNY / Fold change vs veh, CCNY / RFU, UFL1 / Fold change vs veh, UFL1 / RFU, COG3 / Fold change vs veh, COG3 / RFU, DIAPH2 / Fold change vs veh, DIAPH2 / RFU, SKA2 / Fold change vs veh, SKA2 / RFU, AFF3 / Fold change vs veh, AFF3 / RFU, LMF1 / Fold change vs veh, LMF1 / RFU, IPO11 / Fold change vs veh, IPO11 / RFU, DFFB / Fold change vs veh, DFFB / RFU, FOXP1 / Fold change vs veh, FOXP1 / RFU, CARD8 / Fold change vs veh, CARD8 / RFU, STRN3 / Fold change vs veh, STRN3 / RFU, ADK / Fold change vs veh, ADK / RFU, RASSF2 / Fold change vs veh, RASSF2 / RFU, WIPF1 / Fold change vs veh, WIPF1 / RFU, LARP1B / Fold change vs veh, LARP1B / RFU, RASA1 / Fold change vs veh, RASA1 / RFU, RB1 / Fold change vs veh, RB1 / RFU, PPFIA1 / Fold change vs veh, PPFIA1 / RFU, MAT2A / Fold change vs veh, MAT2A / RFU, CCT5 / Fold change vs veh, CCT5 / RFU, WDR92 / Fold change vs veh, WDR92 / RFU, CUX1 / Fold change vs veh, CUX1 / RFU, TTC7A / Fold change vs veh, TTC7A / RFU, TMEM135 / Fold change vs veh, TMEM135 / RFU, DEPTOR / Fold change vs veh, DEPTOR / RFU, CPM / Fold change vs veh, CPM / RFU, DNAJB6 / Fold change vs veh, DNAJB6 / RFU, CACNA2D3 / Fold change vs veh, CACNA2D3 / RFU, DTX4 / Fold change vs veh, DTX4 / RFU, TFCP2 / Fold change vs veh, TFCP2 / RFU, GMCL1 /// GMCL1P1 / Fold change vs veh, GMCL1 /// GMCL1P1 / RFU, AEBP2 / Fold change vs veh, AEBP2 / RFU, SNHG1 /// SNORD22 /// SNORD25 /// SNORD26 /// SNORD27 /// SNORD28 /// SNORD29 /// SNORD31 / Fold change vs veh, SNHG1 /// SNORD22 /// SNORD25 /// SNORD26 /// SNORD27 /// SNORD28 /// SNORD29 /// SNORD31 / Fold change (Aza/veh), C12orf56 (ProbeSet 11735607_a_at) / Fold change (ACY-1035/veh), C12orf56 (ProbeSet 11735607_a_at) / Fold change (Aza/veh), FGFR1OP (ProbeSet 11751329_s_at) / Fold change (ACY-1035/veh), FGFR1OP (ProbeSet 11751329_s_at) / Fold change (Aza/veh), VPS36 (ProbeSet 11739960_a_at) / Fold change (ACY-1035/veh), VPS36 (ProbeSet 11739960_a_at) / RFU SYPL1 (11715823_x_at) / Fold change /veh SYPL1 (11715823_x_at) / RFU IGFBP7 (11715501_s_at) / Fold change /veh IGFBP7 (11715501_s_at) / RFU REEP3 (11722064_at) / Fold change /veh REEP3 (11722064_at) / RFU IGLL1 (11728026_x_at) / Fold change /veh IGLL1 (11728026_x_at): dose or concentration left out as unconfirmed
Settings: ProbeSet 11753623_s_at; LIST D

Question: Which “Fold change vs veh, LOC101060439 /// RAP1B” value does the source give for `Nc1ccc(-c2cccs2)cc1NC(=O)c1ccc2c(c1)cc(C1CC1)n2CCN1CCOCC1` [ACY-1035] here?
Answer: The value was 0.85.
